Results: patent US6369114B1, “Administration of an α2-adrenergic receptor agonist to enhance cardiopulmonary resuscitation” (Institute of Critical Care Medicine, priority 1999, dated 2002)

Columns and labels:
[1] = test system: post-resuscitation myocardial dysfunction, ventricular arrhythmias and survival; test: Ventricular fibrillation cardiac arrest with precordial compression and defibrillation in rats (Example 1); assay type: in vivo, Sprague-Dawley rats; conditions: for duration of post-resuscitation survival: VF untreated 8 min, drug after 2 min precordial compression, α-methylnorepinephrine 100 μg/kg, epinephrine 30 μg/kg, FIG. 4; for resuscitation outcome: defibrillation attempted 4 min after drug
Procedure: Sprague-Dawley rats (450-570 g) were fasted overnight except for free access to water. The animals were anesthetized by intraperitoneal injection of 45 mg/kg pentobarbital sodium supplemented with additional doses of 10 mg/kg at hourly intervals, except that no pentobarbital was administered for 30 minutes before induction of cardiac arrest. The trachea was orally intubated with a 14-gauge cannula (Quick-Cath, Vicra division, Travenol Laboratory) mounted on a blunt needle with a 145° angled tip. For measurement of the partial pressure of carbon dioxide in the endotracheum (PETCO2), the respiratory gas was sampled through a side manifold interposed between the tracheal cannula and the respirator. The PCO2 was measured with a side-stream infrared CO2 analyzer (model 200, Instrumentation Laboratories). For measurement of left ventricular pressure, and both dP/dt40 (the rate of left ventricular pressure increase measured at a left ventricular pressure of 40 mm Hg, an indicator of isovolemic contractility) and negative dP/dt (the rate of left ventricular pressure decline, a measure of myocardial relaxation), a Teflon catheter (UTX 022; internal diameter, 0.6 mm; outer diameter, 0.97 mm; length 8 cm; Becton Dickinson) was advanced into the left ventricle from the right carotid artery. […] Guided by pressure monitoring, the catheter was slowly withdrawn into the right atrium. Right atrial pressure was measured with reference to the midchest with a high-sensitivity transducer (P-23-9b, Spectramed). This catheter was also used to sample blood from the right atrium. Through the right external jugular vein, a 3F pediatric radial artery catheter (model C-PUM-301J, Cook) was advanced into the right atrium. A precurved guide wire supplied with the catheter was then advanced through the catheter into the right ventricle until an endocardial ECG was observed. Through the right femoral artery, a Teflon catheter (UTX 022, Becton Dickinson) was advanced into the thoracic aorta for measurement of aortic pressure with a model TNF-R transducer (Abbott Critical Care). […] Rectal temperature was measured continuously with a rectal thermistor. Conventional lead II ECGs were recorded with skin electrodes (model E220, In-vivo Metric).
Ventricular fibrillation (VF) was induced and untreated for 8 minutes. Precordial compression (PC) was then initiated. After 2 minutes of precordial compression, animals were randomized to receive either the selective α2-adrenergic agent, α-methylnorepinephrine (100 μg/kg; catalog number M133, Research Biochemicals International; abbreviated “α-methylnorepi.”), epinephrine (30 μg/kg; abbreviated “epi.”) or saline placebo. Defibrillation (DF) was attempted 4 min. later. […] Baseline (BL) or control values are shown at the left of the figures.

[2] = test system: post-resuscitation left ventricular function and ventricular arrhythmias; test: Ventricular fibrillation cardiac arrest with precordial compression and defibrillation in pigs (Example 2); assay type: in vivo, Male domestic pigs; conditions: for resuscitation outcome: defibrillation attempted 4 min after drug
Procedure: Male domestic pigs weighing between 40 and 45 kg were fasted overnight except for free access to water. Anesthesia was initiated by intramuscular injection of ketamine (20 mg/kg) and completed by ear vein injection of sodium pentobarbital (30 mg/kg). Additional doses of sodium pentobarbital (8 mg/kg) were injected at intervals of 1 h to maintain anesthesia. A cuffed endotracheal tube was advanced into the trachea. Animals were mechanically ventilated with a volume-controlled ventilator (Model MA-1; Puritan-Bennett, Carlsbad, Calif.). End tidal PCO2 (PETCO2) was monitored with an infrared analyzer (Model 01R-7101A; Nihon Kohden Corp., Tokyo, Japan). Respiratory frequency was adjusted to maintain PETCO2 between 35 and 40 mm Hg.
For the measurement of left ventricular function, a 5-MHZ single plane with 5 MHZ continuous-wave Doppler transesophageal echocardiographic transducer with four-way flexure (Model 21363A; Hewlett-Packard Co., Medical Products Group, Andover Mass.) was advanced from the incisor teeth into the esophagus for a distance of approximately 35 cm. For the measurement of aortic pressure, a fluid-filled catheter was advanced from the left femoral artery into the thoracic aorta. For the measurement of right atrial pressure, pulmonary arterial pressures and blood temperature, a 7-F, pentalumen, thermodilation-tip catheter was advanced from the left femoral vein and flow directed into the pulmonary artery. For inducing ventricular fibrillation (VF), a 5-F pacing catheter (EP Technologies, Inc., Mountain View, Calif.) was advanced from the right cephalic vein into the right ventricle until an electrocardiographic current of injury was recorded.
Ventricular fibrillation (VF) was induced and untreated for 7 minutes. Precordial compression (PC) was then initiated. After 2 minutes of precordial compression, animals were randomized to receive either the selective α2-adrenergic agent, α-methylnorepinephrine (100 μg/kg; catalog number M133, Research Biochemicals International) or epinephrine (30 μg/kg). Defibrillation was attempted 4 min. later. […] A lower incidence of post-resuscitation ventricular arrhythmias was again observed with those animals receiving α-methylnorepinephrine.

[3] = immediately following administration, under spontaneous circulation and during CPR; cited from earlier work
[4] = compared with epinephrine; cited from earlier work

Compound: CNC[C@H](O)c1ccc(O)c(O)c1 [epinephrine]
- duration of post-resuscitation survival [1]: 19 h
- resuscitation outcome [1]: successfully resuscitated
- resuscitation outcome [2]: successfully resuscitated
- decrease of end tidal CO2 (ETCO2) [3]: 50%

Compound: COc1ccc(OC)c(C(O)C(C)N)c1 (centres unmarked) [methoxamine]
- effectiveness for restoring spontaneous circulation [4]: as effective as epinephrine

Compound: CNC[C@H](O)c1cccc(O)c1 [phenylephrine]
- effectiveness for restoring spontaneous circulation [4]: as effective as epinephrine

Compound: CC(N)[C@H](O)c1ccc(O)c(O)c1 (stereo partly drawn) [α-methylnorepinephrine, α-(1-aminoethyl),3,4-dihydroxybenzyl alcohol]
- post-resuscitation myocardial dysfunction as measured by dp/dt40 ([1]; 100 μg/kg, vs epinephrine or saline placebo, FIG. 1): significantly less severe
- post-resuscitation myocardial dysfunction as measured by negative dP/dt ([1]; 100 μg/kg, vs epinephrine or saline placebo, FIG. 2): significantly less severe
- post-resuscitation myocardial dysfunction as measured by cardiac index (CI) ([1]; 100 μg/kg, vs epinephrine or saline placebo, FIG. 3): significantly less severe
- duration of post-resuscitation survival [1]: 72 h
- resuscitation outcome [1]: successfully resuscitated
- incidence of post-resuscitation ventricular arrhythmias ([1]; α-methylnorepinephrine 100 μg/kg vs epinephrine 30 μg/kg or saline placebo): significantly lower
- post-resuscitation left ventricular stroke volume ([2]; 100 μg/kg vs epinephrine 30 μg/kg, transesophageal echo-Doppler, FIG. 5): markedly improved
- post-resuscitation ejection fraction ([2]; 100 μg/kg vs epinephrine 30 μg/kg, transesophageal echo-Doppler, FIG. 6): markedly improved
- post-resuscitation cardiac output ([2]; 100 μg/kg vs epinephrine 30 μg/kg, transesophageal echo-Doppler, FIG. 7): markedly improved
- incidence of post-resuscitation ventricular arrhythmias ([2]; VF untreated 7 min, α-methylnorepinephrine 100 μg/kg vs epinephrine 30 μg/kg): lower
- resuscitation outcome [2]: successfully resuscitated
